The results in this text go back to patent US9458101B2 (priority 2009, dated 2016).

Series [1] relates to CEM (Human T-lymphoblastoid from ALL). The series is described as follows: Cytotoxicity testing (MTS) on CEM. The class given is cell-based. As for the experimental part: (§1) Cell lines used were A549 (Human lung carcinoma), HeLa (Human cervical carcinoma), MCF-7 (Human mammary gland adenocarcinoma), CEM (Human T-lymphoblastoid from ALL (Acute lymphoblastic leukemia)), M010B (Human glioma), M006X (Human glioma) and Jurkat (Human T-cell leukemia).
(§2) A series of dilutions were prepared and a wavelength scan of the diluted solution was used to determine the wavelength of maximum absorbance for each compound. Five standardized drug concentrations were scanned at this pre-determined wavelength to obtain an estimate of the compound's extinction coefficient.
(§3) A primary MTS assay was used to test the optimal number of cells for cytotoxicity assays. Cells were trypsinized, counted and introduced into seven lanes of a 96-well plate at different cell numbers (eight replicates per lane). Optimal cell numbers were determined after 72 and 96 hours of growth and were used in subsequent cytotoxicity assays. […] Cell viability was determined using the Cell Titer 96 AQueous One Solution Cell Proliferation Assay (Promega, U.S.A.).
(§4) Fits were performed using a dose-response model ideal for data showing an initial response plateau, a transition region, and a final response plateau.
(§5) [formula] […] Itop is the response obtained at very low/no drug concentration. The data and all parameters were normalized to Itop−Ibot, a measure of the maximum effect of the drug.

Series [2] concerns A549 (Human lung carcinoma). The series is described as follows: Cytotoxicity testing (MTS) on A549. The class given is cell-based. As for the experimental part:
as §1, §2, §3, §4, §5

Series [3] concerns A549, HeLa, MCF-7 and CEM cell lines. Kind of series: Cytotoxicity, mean over A549, HeLa, MCF-7 and CEM cell lines. Conditions: for cytotoxicity compared with colchicine: cytotoxicity assays; for IC50 [log10 M] (mean logIC50): mean over A549, HeLa, MCF-7 and CEM cell lines.
Excerpt: as §1, §3, §5
Cytotoxicity screening was performed on a number of cell lines based on the cancer of origin and differing morphologies.

A further series deals with M006X (Human glioma). Kind of series: Cytotoxicity testing (MTS) on M006X. Format: cell-based. The protocol: as §1, §2, §3, §4, §5
The test system of series [4] is HeLa (Human cervical carcinoma). The series is described as follows: Cytotoxicity testing (MTS) on HeLa. Format: cell-based. As for the experimental part:
as §1, §2, §3, §4, §5

The test system of series [5] is MCF-7 (Human mammary gland adenocarcinoma). Kind of series: Cytotoxicity testing (MTS) on MCF-7. Format: cell-based. The protocol: as §1, §2, §3, §4, §5
Another series relates to M010B (Human glioma). Kind of series: Cytotoxicity testing (MTS) on M010B. The class given is cell-based. As for the experimental part: as §1, §2, §3, §4, §5

On to `C=CCOc1c(OC)c(OC)cc2c1-c1ccc(OC)c(=O)cc1[C@@H](NC(C)=O)CC2` [Compound 9], for which the “Fraction of cells that survive at the highest drug concentrations (Ibot)” value (from here on “Fraction of cells that survive”) in series [1] is −0.004 ± 0.015; in series [2] it was 0.227 ± 0.021; in the series with M006X (Human glioma), 0.037 ± 0.015; in series [4], 0.082 ± 0.018; in series [5], 0.484 ± 0.009; in the series on M010B (Human glioma), 0.299 ± 0.017. The logIC50 in series [1] is listed as −7.46 ± 0.08 log10 M; in series [2] it was −6.66 ± 0.10 log10 M; in the series with M006X (Human glioma), −7.47 ± 0.09 log10 M; in series [4], −7.35 ± 0.09 log10 M; in series [5] it was −7.10 ± 0.05 log10 M; with M010B (Human glioma) it was −6.74 ± 0.08 log10 M. In series [3], the “cytotoxicity compared with colchicine” value is “moderately better than colchicine”. In series [3], the “IC50 [log10 M] (mean logIC50)” value is recorded as −7.15 ± 0.08 log10 M.

Consider `COc1cc2c(c(OCc3ccccc3)c1OC)-c1ccc(OC)c(=O)cc1[C@@H](NC(C)=O)CC2` [Compound 10, N-[(7S)-2,3,10-trimethoxy-9-oxo-1-((phenyl)methoxy)-5,6,7,9-tetrahydrobenzo [α]heptalen-7-yl]acetamide], for which the “Fraction of cells that survive” value in series [1] amounted to 0.012 ± 0.022; in series [2], 0.256 ± 0.032; with M006X (Human glioma), 0.088 ± 0.022; in series [4], 0.080 ± 0.026; in series [5] it was 0.387 ± 0.016; with M010B (Human glioma), 0.250 ± 0.031. For the same molecule, the logIC50 is reported as −6.45 ± 0.09 log10 M in series [1]; −5.77 ± 0.10 log10 M in series [2]; −6.42 ± 0.09 log10 M with M006X (Human glioma); −6.17 ± 0.07 log10 M in series [4]; −6.27 ± 0.08 log10 M in series [5]; −5.66 ± 0.10 log10 M in the series with M010B (Human glioma). For the same molecule, in series [3], the “IC50 [log10 M] (mean logIC50)” value is −6.16 ± 0.08 log10 M.

For `COc1cc2c(c(OCc3cccc(Cl)c3)c1OC)-c1ccc(OC)c(=O)cc1[C@@H](NC(C)=O)CC2` [Compound 12, N-[(7S)-2,3,10-trimethoxy-9-oxo-1-((phenyl(3-chloro))methoxy)-5,6,7,9-tetrahydrobenzo[α]heptalen-7-yl]acetamide], the “Fraction of cells that survive” value is recorded as −0.015 ± 0.021 in series [1]; 0.245 ± 0.024 in series [2]; 0.051 ± 0.027 in the series on M006X (Human glioma); 0.040 ± 0.038 in series [4]; 0.390 ± 0.025 in series [5]; 0.328 ± 0.022 with M010B (Human glioma). Also, the logIC50 in series [1] is recorded as −6.46 ± 0.09 log10 M; in series [2], −6.00 ± 0.04 log10 M; in the series with M006X (Human glioma), −6.47 ± 0.12 log10 M; in series [4], −6.43 ± 0.15 log10 M; in series [5], −6.30 ± 0.12 log10 M; in the series with M010B (Human glioma), −6.39 ± 0.11 log10 M. For the same molecule, in series [3], the “IC50 [log10 M] (mean logIC50)” value is reported as −6.30 ± 0.10 log10 M.

With `COc1cc2c(c(OCc3ccc(Cl)cc3)c1OC)-c1ccc(OC)c(=O)cc1[C@@H](NC(C)=O)CC2` [Compound 15], the “Fraction of cells that survive” value is −0.016 ± 0.032 in series [1]; 0.288 ± 0.020 in series [2]; 0.058 ± 0.030 with M006X (Human glioma); 0.039 ± 0.034 in series [4]; 0.381 ± 0.024 in series [5]; 0.382 ± 0.028 in the series with M010B (Human glioma). The logIC50 in series [1] is given as −6.57 ± 0.11 log10 M; in series [2], −6.23 ± 0.08 log10 M; in the series on M006X (Human glioma) it was −6.45 ± 0.13 log10 M; in series [4], −6.22 ± 0.09 log10 M; in series [5] it was −6.35 ± 0.12 log10 M; in the series on M010B (Human glioma), −6.38 ± 0.14 log10 M. Further, the “IC50 [log10 M] (mean logIC50)” value in series [3] is recorded as −6.34 ± 0.10 log10 M.

On to `CCOc1cc2c(c(OC)c1OC)-c1ccc(SC)c(=O)cc1[C@@H](NC(C)=O)CC2` [Compound 42, N-[(7S)-3-ethoxy-1,2-dimethoxy-10-methylsulfanyl-9-oxo-5,6,7,9-tetrahydrobenzo[α]heptalen-7-yl]acetamide], for which the “Fraction of cells that survive” value turned out to be 0.026 ± 0.018 in series [1]; 0.256 ± 0.015 in series [2]; 0.184 ± 0.021 in the series with M006X (Human glioma); 0.046 ± 0.026 in series [4]; 0.538 ± 0.010 in series [5]; 0.327 ± 0.023 in the series on M010B (Human glioma). For the same molecule, the logIC50 is given as −8.64 ± 0.09 log10 M in series [1]; −8.37 ± 0.10 log10 M in series [2]; −8.83 ± 0.08 log10 M in the series on M006X (Human glioma); −8.47 ± 0.14 log10 M in series [4]; −8.28 ± 0.10 log10 M in series [5]; −8.27 ± 0.12 log10 M in the series on M010B (Human glioma). Further, the “average IC50 values compared with colchicine” value in series [3] (average values of Table 3) was “stronger than colchicine”. In addition, the “cytotoxicity compared with colchicine” value in series [3] is given as “consistently the most effective”. For the same molecule, the “IC50 [log10 M] (mean logIC50)” value in series [3] is on record as −8.44 ± 0.11 log10 M.

For “N-[(7S)-2,3,10-trimethoxy-1-((methyl)cyclohexane)-9-oxo-5,6,7,9-tetrahydrobenzo[α]heptalen-7-yl]acetamide [Compound 16]”, the logIC50 in series [1] is −5.53 ± 0.10 log10 M; in series [2], −4.95 ± 0.07 log10 M; in the series with M006X (Human glioma), −5.44 ± 0.12 log10 M; in series [4], −5.33 ± 0.11 log10 M; in series [5] it was −5.22 ± 0.08 log10 M; in the series on M010B (Human glioma), −5.20 ± 0.08 log10 M. In series [3], the “IC50 [log10 M] (mean logIC50)” value was −5.26 ± 0.09 log10 M.

As for “N-[(7S)-2,3,10-trimethoxy-9-oxo-1-(((3-methoxy)propan)oxy)(3-methoxy))-5,6,7,9-tetrahydrobenzo[α]heptalen-7-yl]acetamide [Compound 11]”, the logIC50 in series [1] was −7.45 ± 0.09 log10 M; in series [2], −6.47 ± 0.12 log10 M; with M006X (Human glioma) it was −7.40 ± 0.09 log10 M; in series [4], −7.23 ± 0.09 log10 M; in series [5], −7.05 ± 0.04 log10 M; with M010B (Human glioma), −6.74 ± 0.08 log10 M. Also, the “IC50 [log10 M] (mean logIC50)” value in series [3] is recorded as −7.05 ± 0.09 log10 M.
